The values below come from patent publication US20240254138A1, “TRICYCLIC PYRIMIDINES AS CYCLIN-DEPENDENT KINASE 7 (CDK7) INHIBITORS” (JANSSEN PHARMACEUTICA NV, priority 2021, published 2024).

Read-outs that look alike come from different tables or passages of the source.

For assay [1], the system named is RNA Polymerase II Serine 5 phosphorylation in A549 cells overexpressing CDK7-mutant (C312S). Nature of the assay: Imaging-based cellular RNA PolII Ser5 phosphorylation assay in A549 cells overexpressing CDK7-mutant (C312S). Type of assay: cell-based, human. Particulars: RNA PolII Ser5 phosphorylation, averaged over all measurements; for IC50: Homo sapiens, A549, A549 cells overexpressing CDK7-mutant (C312S), read-out: CDK7_A549 mutant hCDK7(pIC50) (converted). The method, boiled down:
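A549 cells overexpressing CDK7 C312S (with endogenous wild-type CDK7) were treated with compound for 3 h at 37 °C in 1% FBS medium. Phospho-Rpb1 CTD Ser5 was immunostained after fixation and imaged. IC50 came from curve fit of % control, normalised to DMSO and 10 μM reference-compound controls.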

The subject of assay [2] is RNA Polymerase II Serine 5 phosphorylation (Rpb1 CTD, downstream substrate of CDK7) in A549 cells. Nature of the assay: Imaging-based cellular RNA PolII Ser5 phosphorylation assay in A549 cells. The format is cell-based, human. Particulars: wild-type CDK7, RNA PolII Ser5 phosphorylation, averaged over all measurements; for IC50: Homo sapiens, A549, A549 cells, read-out: CDK7_A549 Wild-type CDK7 (pIC50) (converted). Put shortly: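 A549 cells, seeded 1000/well in DMEM with 1% FBS and cultured 20 h, were treated with compound for 3 h at 37 °C. Ser5-phospho-Rpb1 CTD detected by immunofluorescence imaging after fixation and methanol permeabilization; IC50 from curve fit normalized to DMSO and 10 μM reference-compound controls.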

The target of assay [3] is CDK7/cyclinH/MAT1 trimeric complex (Homo sapiens, UniProt P50613). As to the kind of experiment: In vitro CDK7 assay, potency of irreversible covalent inhibitors (kinact/KI), coupled PK/LDH ADP readout at 340 nm. The following applies: for Ki: CDK7 (20 nM enz.) (KI, μM); for Ki / CDK7 (20 nM enz.) (kinact, s^−1) / CDK7 (20 nM enz.) (kinact/KI, M^−1*s^−1): 20 nM enzyme; for kinact: read-out: CDK7 (20 nM enz.) (kinact, s^−1), 20 nM enzyme.

Setting [4] is: read-out: CDK7 (20 nM enz.) (kobs/[I], M^−1*s^−1), 20 nM enzyme.
[5] abbreviates: read-out: CDK7 (20 nM enz.) (kinact/KI, M^−1*s^−1), 20 nM enzyme.

Sequence of CDK7/cyclinH/MAT1 trimeric complex (P50613 whole entry): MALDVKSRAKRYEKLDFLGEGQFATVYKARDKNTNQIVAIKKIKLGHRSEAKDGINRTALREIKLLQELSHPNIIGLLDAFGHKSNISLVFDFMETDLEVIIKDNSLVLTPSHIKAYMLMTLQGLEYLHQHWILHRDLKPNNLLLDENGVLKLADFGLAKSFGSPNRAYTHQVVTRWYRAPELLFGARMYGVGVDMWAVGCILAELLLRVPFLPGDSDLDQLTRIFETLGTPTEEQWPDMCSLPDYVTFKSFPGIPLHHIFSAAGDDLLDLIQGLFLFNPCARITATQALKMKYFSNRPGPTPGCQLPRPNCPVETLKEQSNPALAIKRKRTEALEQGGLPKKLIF
Sequence of CDK7/cyclinH/MAT1 trimeric complex (P51946 whole entry partner): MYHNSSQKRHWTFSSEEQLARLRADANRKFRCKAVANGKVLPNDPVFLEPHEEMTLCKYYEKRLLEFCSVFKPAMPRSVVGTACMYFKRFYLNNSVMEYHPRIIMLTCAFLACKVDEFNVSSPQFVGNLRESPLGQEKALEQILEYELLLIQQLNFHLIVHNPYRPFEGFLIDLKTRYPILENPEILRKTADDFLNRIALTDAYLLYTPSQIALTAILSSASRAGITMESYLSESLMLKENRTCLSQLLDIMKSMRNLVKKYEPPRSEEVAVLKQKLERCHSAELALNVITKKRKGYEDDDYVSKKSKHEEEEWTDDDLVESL
Sequence of CDK7/cyclinH/MAT1 trimeric complex (P51948 whole entry partner): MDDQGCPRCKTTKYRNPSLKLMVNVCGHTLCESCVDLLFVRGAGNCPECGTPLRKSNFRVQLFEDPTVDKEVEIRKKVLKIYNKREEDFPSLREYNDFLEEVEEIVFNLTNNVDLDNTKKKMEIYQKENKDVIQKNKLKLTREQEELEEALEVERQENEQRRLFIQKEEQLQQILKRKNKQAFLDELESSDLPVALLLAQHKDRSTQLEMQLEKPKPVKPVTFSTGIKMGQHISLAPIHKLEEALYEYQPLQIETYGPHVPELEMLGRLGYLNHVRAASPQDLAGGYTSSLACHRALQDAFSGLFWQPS

`C=CC(=O)N1CCC(N2CCC(c3cc(C)c4c(c3)Nc3nccc(N5CCOCC5)c3CO4)CC2)C1` (centres unmarked) [Compound 78]: the IC50 in assay [1] was 8130 nM; in assay [2], 26.9 nM. Besides, the kinact/KI in assay [3] (setting [4]) was determined as 908 M⁻¹ s⁻¹.
Turning to `C=CC(=O)N1CCC(N2CCC(c3cc(C)c4c(c3)Nc3nccc(N5CCOCC5)c3CO4)CC2)CC1` [Compound 79], the IC50 in assay [1] was 5890 nM; in assay [2], 37.2 nM. In addition, the kinact/KI in assay [3] (setting [4]) is 766 M⁻¹ s⁻¹.
With `C=CC(=O)N1CC(N2CCC(O)(c3ccc4c(c3)Nc3nccc(N5CCOCC5)c3CO4)CC2)C1` [Compound 80], the IC50 in assay [1] is over 10000 nM. Besides, the IC50 in assay [2] was 417 nM. In assay [3], the Ki was determined as 0.0563 µM and the inactivation rate constant (kinact) was 4.16e-05 s⁻¹. Also, the kinact/KI in assay [3] (setting [5]) is 740 M⁻¹ s⁻¹.
For `C=CC(=O)N1CC(N2CCC(c3cc(C)c4c(c3)Nc3nccc(C5=CCS(=O)(=O)CC5)c3CO4)CC2)C1` [Compound 81], in assay [1], the IC50 was over 10000 nM. Besides, the IC50 in assay [2] was 417 nM. For the same compound, in assay [3], the Ki amounted to 0.067 µM and the kinact amounted to 4.29e-05 s⁻¹. Moreover, the kinact/KI in assay [3] (setting [5]) worked out at 640 M⁻¹ s⁻¹.
For `C=CC(=O)N1CC(N2CCC(c3cc(Br)c4c(c3)Nc3nccc(C5CCOCC5)c3CO4)CC2)C1` [Compound 82], the IC50 was 7940 nM in assay [1] and 46.8 nM in assay [2]. Besides, in assay [3] (setting [4]), the kinact/KI was determined as 1570 M⁻¹ s⁻¹.
Turning to `C=CC(=O)N1CC(N2CCC(c3ccc4c(c3)Nc3nccc(N5CCS(=O)(=NC)CC5)c3CO4)CC2)C1` [Compound 84], the IC50 in assay [1] was over 10000 nM. Further, the IC50 in assay [2] was 575 nM. Besides, in assay [3], the Ki was 0.191 µM and the maximal inactivation rate constant (kinact) is 6.74e-05 s⁻¹. The kinact/KI in assay [3] (setting [5]) is 354 M⁻¹ s⁻¹.
Turning to `C=CC(=O)N1CCC(N2CC(c3cc(Cl)c4c(c3)Nc3nccc(-c5cnn(C)c5)c3CO4)C2)CC1` [Compound 85], the IC50 in assay [1] is 4370 nM; in assay [2] it was 81.3 nM. Further, in assay [3] (setting [4]), the kinact/KI is 608 M⁻¹ s⁻¹.
For `C=CC(=O)N1CCC(N2CC(c3cc(Cl)c4c(c3C)Nc3nccc(C5CCOCC5)c3CO4)C2)CC1` [Compound 86], the IC50 in assay [1] is over 10000 nM. In addition, the IC50 in assay [2] is 1580 nM. In assay [3], the Ki turned out to be 0.397 µM and the kinact was determined as 2.5e-05 s⁻¹. In addition, in assay [3] (setting [5]), the kinact/KI was determined as 63.1 M⁻¹ s⁻¹.
Take `C=CC(=O)N1CC(N2CCC(c3cc4c(c(C5CC5)c3)OCc3c(C5CCOCC5)ccnc3N4)CC2)C1` [Compound 87]: the IC50 in assay [1] was over 10000 nM; in assay [2] it was 81.3 nM. In assay [3] (setting [4]), the kinact/KI worked out at 1420 M⁻¹ s⁻¹.
For `C=CC(=O)N1CC(N2CC(c3ccc4c(c3)Nc3nccc(N5CCOCC5)c3CO4)C2)C1` [Compound 88] the same measures were over 10000 nM, 162 nM and 1050 M⁻¹ s⁻¹.
For `C=CC(=O)N1CC(N2CCC(c3cc(Cl)c4c(c3)Nc3nccc(N5CCOCC5)c3CO4)CC2)C1` [Compound 91], the “CDK7_A549 mutant hCDK7(pIC50)” value in assay [1] (A549 cells overexpressing CDK7-mutant (C312S)) is under 5. For the same compound, the “CDK7_A549 Wild-type CDK7 (pIC50)” value in assay [2] (A549 cells) turned out to be 7.42. The kinact/KI in assay [3] (setting [4]) was found to be 1740 M⁻¹ s⁻¹.
Take `C=CC(=O)N=S1(=O)CCN(c2ccnc3c2COc2ccc(C4CCN(C5CN(C(=O)C=C)C5)CC4)cc2N3)CC1` [Compound 94]: the IC50 in assay [1] is over 10000 nM. The IC50 in assay [2] was over 10000 nM. Also, in assay [3], the Ki was 3.37 µM and the maximal inactivation rate constant (kinact) came out at 3.79e-05 s⁻¹. The kinact/KI in assay [3] (setting [5]) amounted to 11.2 M⁻¹ s⁻¹.
Consider `C=CC(=O)N1CCC(N2CCC(c3ccc4c(c3)Nc3nccc(N5CCS(=O)(=NC)CC5)c3CO4)CC2)CC1` [Compound 95], for which, in assay [1], the IC50 is over 10000 nM. In assay [2], the IC50 is 288 nM. In assay [3], the Ki turned out to be 0.48 µM and the kinact is 4.87e-05 s⁻¹. Further, the kinact/KI in assay [3] (setting [5]) came to 101 M⁻¹ s⁻¹.
For `C=CC(=O)N1CCC(N2CC(c3ccc4c(c3)Nc3nccc(C5CCOCC5)c3CO4)C2)CC1` [Compound 96], in assay [1], the IC50 is over 10000 nM. The IC50 in assay [2] is 123 nM. For the same compound, in assay [3], the “CDK7 (20 nM enz.) (kinact, s^−1)” value was 4.701e-05 s⁻¹; the “CDK7 (20 nM enz.) (kinact/KI, M^−1*s^−1)” value came out at 255.867 M⁻¹ s⁻¹; the Ki was 0.184 µM.
Consider `C=CC(=O)N1CC(N2CCC(c3cc(C)c4c(c3)Nc3nccc(-c5cnn(C)c5)c3CO4)CC2)C1` [Compound 99], for which the IC50 was over 10000 nM in assay [1] and 44.7 nM in assay [2]. Further, in assay [3] (setting [4]), the kinact/KI turned out to be 1440 M⁻¹ s⁻¹.
Turning to `C=CC(=O)N1CCC(N2CC(c3cc(C)c4c(c3)Nc3nccc(-c5cnn(C)c5)c3CO4)C2)CC1` [Compound 100], the IC50 in assay [1] is 3310 nM. Also, the IC50 in assay [2] is 51.3 nM. In assay [3], the “CDK7 (20 nM enz.) (kinact, s^−1)” value turned out to be 5.051e-05 s⁻¹ and the “CDK7 (20 nM enz.) (kinact/KI, M^−1*s^−1)” value was 1179.87 M⁻¹ s⁻¹.
Turning to `C=CC(=O)N1CC(N2CCC(c3cc(Cl)c4c(c3)Nc3nccc(C5CCOCC5)c3CO4)CC2)C1` [Compound 101], the values for the IC50 in assay [1] and in assay [2] were over 10000 nM and 64.6 nM, respectively. For the same compound, the kinact/KI in assay [3] (setting [4]) is 1110 M⁻¹ s⁻¹.
Consider `C=CC(=O)N1CCC(N2CC(c3cc4c(c(C(F)(F)F)c3)OCc3c(-c5cnn(C)c5)ccnc3N4)C2)CC1` [Compound 102], for which the IC50 in assay [1] was 3550 nM; in assay [2], 40.7 nM. The Ki in assay [3] stood at 0.0268 µM. Also, the maximal inactivation rate constant (kinact) in assay [3] was determined as 4.38e-05 s⁻¹. In assay [3] (setting [5]), the kinact/KI worked out at 1630 M⁻¹ s⁻¹.
On to `C=CC(=O)N1CC(N2CCC(c3cc(Cl)c4c(c3)Nc3nccc(N5CCS(=O)(=O)CC5)c3CO4)CC2)C1` [Compound 103], for which, in assay [1], the IC50 is over 10000 nM. Besides, the IC50 in assay [2] was 126 nM. In addition, in assay [3], the Ki was 0.0424 µM and the inactivation rate constant (kinact) is 8.56e-05 s⁻¹. Moreover, in assay [3] (setting [5]), the kinact/KI is 2020 M⁻¹ s⁻¹.
For `C=CC(=O)N1CCC(N2CCC(c3cc(C)c4c(c3)Nc3nccc(-c5cnn(C)c5)c3CO4)CC2)CC1` [Compound 105], in that order: 2570 nM, 16.2 nM, 0.0256 µM, 5.8e-05 s⁻¹ and 2260 M⁻¹ s⁻¹.
For `C=CC(=O)N1CC(N2CCC(c3ccc4c(c3)Nc3nccc(N5CCOCC5)c3CO4)CC2)C1` [Compound 107] the same measures were over 10000 nM, 110 nM, 0.056 µM, 5.28e-05 s⁻¹ and 943 M⁻¹ s⁻¹.
On to `C=CC(=O)N1CC(c2ncc(-c3cc(C)c4c(c3)Nc3nccc(N5CCS(=O)(=O)CC5)c3CO4)cn2)C1` [Compound 108], for which, in assay [1], the IC50 is over 10000 nM. Further, the IC50 in assay [2] is 933 nM. Also, in assay [3], the Ki was 0.57 µM and the inactivation rate constant (kinact) came out at 5.75e-05 s⁻¹. Besides, the kinact/KI in assay [3] (setting [5]) turned out to be 101 M⁻¹ s⁻¹.
Turning to `C=CC(=O)N1CC(N2CC[C@H](c3ccc4c(c3)Nc3nccc(N5CCOCC5)c3CO4)[C@@H](F)C2)C1` [Compound 110], in assay [1], the IC50 was over 10000 nM. The IC50 in assay [2] was 257 nM. Also, in assay [3], the “CDK7 (20 nM enz.) (kinact, s^−1)” value worked out at 5.833e-05 s⁻¹; the “CDK7 (20 nM enz.) (kinact/KI, M^−1*s^−1)” value was 253.792 M⁻¹ s⁻¹; the Ki was determined as 0.23 µM.
Consider `C=CC(=O)N1CCC(N2CC(c3cc4c(c(C(F)(F)F)c3)OCc3c(N5CCOCC5)ccnc3N4)C2)CC1` [Compound 111], for which the values for the IC50 in assay [1] and in assay [2] were 4170 nM and 45.7 nM, respectively. In addition, the kinact/KI in assay [3] (setting [4]) was 622 M⁻¹ s⁻¹.
Consider `C=CC(=O)N1CCC(N2CC(c3cc(F)c4c(c3)Nc3nccc(C5CCOCC5)c3CO4)C2)CC1` [Compound 112], for which the IC50 in assay [1] was 8510 nM; in assay [2], 155 nM. The compound further yielded a Ki in assay [3] of 0.0653 µM. Also, the kinact in assay [3] was 4.53e-05 s⁻¹. In addition, the kinact/KI in assay [3] (setting [5]) came out at 693 M⁻¹ s⁻¹.
